Structures can show the parent of a compound that is named as a salt. Where two headings read alike, the source gives them in different places.
Legend:
[1] = system: MES-SA/Dx5 cells; test: PrestoBlue viability assay, MES-SA/Dx5 cells (MDR, P-gp positive); conditions: for SR: selectivity ratio MES-SA vs MES-SA/Dx5, without TQ; for SR (MES-SA_TQ / Dx5_TQ) (values in parentheses): presence of 1 μM TQ; for SR_TQ: selectivity ratio MES-SA vs MES-SA/Dx5, with TQ; for pIC50 value MES-SA/Dx5: MES-SA/Dx5 cells, without TQ
[2] = system: MES-SA cells; test: PrestoBlue viability assay, MES-SA cells; conditions: for pIC50 value MES-SA: MES-SA cells, without TQ
[3] = Homo sapiens, MES-SA/Dx5, 72 h, read-out: IC50 / μM MES-SA/Dx5, absence of TQ, 72 h incubation
[4] = Homo sapiens, MES-SA, 72 h, read-out: IC50 / μM MES-SA, absence of TQ, 72 h incubation
[5] = Homo sapiens, MES-SA, read-out: pIC50 value MES-SA, MES-SA cells, without TQ (converted)
[6] = Homo sapiens, MES-SA/Dx5, read-out: pIC50 value MES-SA/Dx5, MES-SA/Dx5 cells, without TQ (converted)
[7] = Homo sapiens, MES-SA/Dx5, read-out: IC50 / μM MES-SA/Dx5 (values in parentheses), presence of 1 μM P-gp inhibitor tariquidar (TQ)
[8] = fraction of IC50 in P-gp negative vs positive cells
[9] = Homo sapiens, MES-SA, read-out: IC50 / μM MES-SA (values in parentheses), presence of 1 μM P-gp inhibitor tariquidar (TQ)
[10] = Homo sapiens, MES-SA, read-out: pIC50 value MES-SA+TQ, MES-SA cells, with TQ (converted)
[11] = read-out: IC50 / μM MES-SA/Dx5, absence of TQ, 72 h incubation
[12] = read-out: IC50 / μM MES-SA, absence of TQ, 72 h incubation

Oc1ccccc1CN1CCOCC1 [Compound 65] was tested, and the IC50 [1, 3] was > 100 µM and the IC50 [2, 4] was > 100 µM.
In the case of Oc1ccccc1C(=S)N1CCOCC1 [Compound 66], the IC50 [1, 3] is reported as > 100 µM and the IC50 [2, 4] is reported as > 100 µM.
With O=C(c1ccccc1O)N1CCOCC1 [Compound 67] the IC50 [1, 3] was > 100 µM and the IC50 [2, 4] was > 100 µM.
With Cc1ccc(O)c(C(=O)N2CCOCC2)c1 [Compound 68] the IC50 [1, 3] was > 100 µM, the IC50 [2, 4] was > 100 µM and the IC50 [2, 5] was 380 µM.
With Oc1ccc2ccccc2c1CN1CCOCC1 [Compound 69] the IC50 [1, 3] was > 100 µM and the IC50 [2, 4] was > 100 µM.
In the case of COc1ccc(O)c(CN2CCN(C)CC2)c1 [Compound 73], the IC50 [1, 3] is reported as > 100 µM and the IC50 [2, 4] is reported as > 100 µM.
With CCN1CCN(Cc2cc(OC)ccc2O)CC1 [Compound 74] the IC50 [1, 3] was > 100 µM and the IC50 [2, 4] was > 100 µM.
In the case of CN1CCN(Cc2c(O)ccc3ccccc23)CC1 [Compound 75], the IC50 [1, 3] is reported as > 100 µM and the IC50 [2, 4] is reported as > 100 µM.
O=C1CCCN1Cc1cc(Cl)c2cccnc2c1O [Compound 76] gave an IC50 [1, 3] of 12.2 ± 0.55 µM, an IC50 [1, 6] of 12 µM and an SR [1] of 0.84. For the same compound, the IC50 [2, 4] was 10.2 ± 0.25 µM and the IC50 [2, 5] was 10.2 µM.
Work on CC1CCCCN1Cc1cc(Cl)c2cccnc2c1O (centres unmarked) [Compound 77] yielded an IC50 [1, 3] of 0.34 ± 0.03 µM, an IC50 [1, 7] of 1.55 µM and an IC50 [1, 6] of 0.339 µM. For the same compound, the “SR (MES-SA_TQ / Dx5_TQ) (values in parentheses)” value (“SR (MES-SA_TQ / Dx5_TQ)” below) [1, 8] was 1.51, the SR_TQ [1] was 1.51 and the SR [1] was 7.57. It also gave an IC50 [2, 4] of 2.57 ± 0.1 µM, an IC50 [2, 9] of 2.35 µM and an IC50 [2, 10] of 2.34 µM. It also gave an IC50 [2, 5] of 2.57 µM.
In the case of CCOC(=O)C1CCCN(Cc2cc(Cl)c3cccnc3c2O)C1 (centres unmarked) [Compound 78], the IC50 [1, 3] is reported as 0.43 ± 0.01 µM, the IC50 [1, 7] is reported as 1.18 µM and the “SR (MES-SA / MES-SA/Dx5)” value ([1]; fraction of IC50 in P-gp negative vs positive cells, absence of TQ) is reported as 5.91. The “SR (MES-SA_TQ / Dx5_TQ)” value [1, 8] was 1.81, the IC50 [2, 4] was 2.52 ± 0.22 µM and the IC50 [2, 9] was 2.14 µM.
Oc1c(CN2CCc3ccccc3C2)cc(Cl)c2cccnc12 [Compound 80] showed an IC50 [1, 3] of 0.27 ± 0.06 µM, an IC50 [1, 7] of 1.05 µM and an IC50 [1, 6] of 0.263 µM. For the same compound, the “SR (MES-SA_TQ / Dx5_TQ)” value [1, 8] was 1.72, the SR_TQ [1] was 1.72 and the SR [1] was 7.21. It also gave an IC50 [2, 4] of 1.96 ± 0.22 µM, an IC50 [2, 9] of 1.81 µM and an IC50 [2, 10] of 1.78 µM. It also gave an IC50 [2, 5] of 1.95 µM.
Oc1cc2c(cc1O)CN(Cc1ccc3cccnc3c1O)CC2 [Compound 82, 2-((8-Hydroxy-quinolin-7-yl)methyl)-1,2,3,4-tetrahydroisoquinoline-6,7-diol Hydrochloride] was tested, and the IC50 [1, 3] was 3.61 ± 0.51 µM, the IC50 [1, 6] was 3.55 µM and the SR [1] was 0.95. It also gave an IC50 [2, 4] of 3.42 ± 0.28 µM and an IC50 [2, 5] of 3.39 µM.
With Oc1c(C(c2ccncc2)N2CCCC2)ccc2cccnc12 (centres unmarked) [Compound 86] the IC50 [1, 3] was 3.66 ± 0.45 µM, the IC50 [1, 6] was 3.63 µM and the SR [1] was 1.64. The IC50 [2, 4] was 5.99 ± 0.88 µM and the IC50 [2, 5] was 5.89 µM.
Oc1c(C(c2ccc(Cl)cc2)N2CCCC2)ccc2cccnc12 (centres unmarked) [Compound 87] was tested, and the “pIC50 value MES-SA/Dx5” value [1] was 5.18, the IC50 [1, 11] was 6.58 ± 0.53 µM and the SR_TQ [1] was 1.35. The SR [1] was 3, the “pIC50 value MES-SA” value [2] was 4.71 and the IC50 [2, 12] was 19.7 ± 2.25 µM.
In the case of Cc1ccc(C(c2cc(Cl)c3cccnc3c2O)N2CCCC2)cc1 (centres unmarked) [Compound 91], the IC50 [1, 3] is reported as 6.06 ± 2.21 µM, the IC50 ([1]; Homo sapiens, MES-SA/Dx5, read-out: pIC50 value MES-SA/Dx5 + TQ, MES-SA/Dx5 cells, with TQ (converted)) is reported as 2.34 µM and the IC50 [1, 6] is reported as 5.62 µM. The SR_TQ [1] was 3.8, the SR [1] was 2.18 and the IC50 [2, 4] was 13.2 ± 3.09 µM. It also gave an IC50 [2, 10] of 8.91 µM and an IC50 [2, 5] of 12.9 µM.
With Oc1c(C(c2ccncc2)N2CCCCC2)ccc2cccnc12 (centres unmarked) [Compound 93] the “pIC50 value MES-SA/Dx5” value [1] was 5.08, the IC50 [1, 11] was 8.39 ± 1.09 µM and the SR_TQ [1] was 1.1. The SR [1] was 1.93, the “pIC50 value MES-SA” value [2] was 4.81 and the IC50 [2, 12] was 16.2 ± 4.33 µM.
With Oc1c(C(c2cccs2)N2CCCCC2)ccc2cccnc12 (centres unmarked) [Compound 94] the IC50 [1, 3] was 11.6 ± 0.94 µM, the IC50 [1, 6] was 11.5 µM and the SR [1] was 0.76. For the same compound, the IC50 [2, 4] was 8.88 ± 0.93 µM and the IC50 [2, 5] was 8.91 µM.
For Oc1c(C(c2ccccc2Cl)N2CCCCC2)ccc2cccnc12 (centres unmarked) [Compound 95], the “pIC50 value MES-SA/Dx5” value [1] was 5.04, the IC50 [1, 11] was 9.45 ± 2.11 µM and the SR_TQ [1] was 2.75. For the same compound, the SR [1] was 1.85, the “pIC50 value MES-SA” value [2] was 4.77 and the IC50 [2, 12] was 17.5 ± 4.45 µM.

Source: PMC9189845, “Structure–Activity Relationships of 8-Hydroxyquinoline-Derived Mannich Bases with Tertiary Amines Targeting Multidrug-Resistant Cancer” (Journal of Medicinal Chemistry, 2022)
